Results reported in patent US3968233A, “α-Amino-γ-butyrolactones as sedatives” (priority 1975, dated 1976).

What was measured:
[1] = Diuresis in water-loaded rats; type: in vivo, rat
Description: (§1) The effect of a single 500 mg/kg oral dose of AP-28 was determined on (a) diuresis in water-loaded rats, (b) choleresis, (c) the excretion rate of intravenously-injected bromosulfonphthalein in bile, (d) arterial blood pressure.

Choleresis = type: in vivo; conditions: single 500 mg/kg oral dose
Description: as §1

[2] = Protective effect against strychnine (single injection); type: in vivo, mouse; conditions: 30 minutes before strychnine
Description: This type of antagonism was evaluated in the mouse in three ways, namely: (1) protection from death from one hypodermic injection of strychnine: (2) evaluation of the LD50 of strychnine in mice both treated and untreated with AP-28, and (3) influence on the time required to cause animals to die by slow intravenous perfusion of strychnine. […] Groups of six mice were used. (2) increasing amounts of strychnine sulfate were injected hypodermically. In two experiments 200 or 400 mg/kg of intraperitoneal AP-28 were given 30 minutes prior to strychnine injection and the LD50 was calculated. The following results were obtained (95-percent confidence limits): […]

[3] = Spontaneous mobility (light beam interruptions); type: in vivo, mouse
Description: Several groups of four mice each were placed in an apparatus designed to provide a measure of spontaneous mobility by counting the number of interruptions of a light beam for a period of 10 minutes. After preliminary measurement of mobility, animals were injected with AP-28 (250 and 500 mg/kg) intraperitoneally. Control animals received saline solution. Ten minutes thereafter the measurement of mobility was repeated. Five groups of mice were used as controls and six other groups were treated with varying doses of AP-28.

**Q.** Which results are given for `CCCCOC(=O)NC1CCOC1=O` (stereo not drawn) [AP-28, α-n-butoxycarbonyl-amino-γ-butyrolactone]?
**A.** rate of urine excretion ([1]; 500 mg/kg oral daily for 5 subsequent days): the rate of urine excretion was slowed; diuresis ([1]; single 500 mg/kg oral dose): No treatment caused any significant change; choleresis (Choleresis): No treatment caused any significant change; Animals with convulsions/treated ([2]; 250 mg/kg i.p.): 7/7; Died/treated ([2]; 250 mg/kg i.p.): 1/7; Time of death ([2]; 250 mg/kg i.p., extreme values): 33 min; Animals with convulsions/treated ([2]; 500 mg/kg i.p.): 3/8; Died/treated ([2]; 500 mg/kg i.p.): 0/8; Animals with convulsions/treated ([2]; 500 mg/kg os): 5/9; Died/treated ([2]; 500 mg/kg os): 0/9; Percent reduction at 2nd measurement ([3]; 250 mg/kg i.p.): 68.1%; mobility, percent of the baseline values ([3]; 250 mg/kg i.p.): 31.9%; Percent reduction at 2nd measurement ([3]; 500 mg/kg i.p.): 76.9%; mobility, percent of the baseline values ([3]; 500 mg/kg i.p.): 23.1%; Mean number of crossings (± SE) ([3]; after treatment, 250 mg/kg i.p.): 84.1 ± 15; Mean number of crossings (± SE) ([3]; after treatment, 500 mg/kg i.p.): 50.5 ± 5; Mean number of crossings (± SE) ([3]; before treatment, 250 mg/kg i.p. group): 261.5 ± 25; Mean number of crossings (± SE) ([3]; before treatment, 500 mg/kg i.p. group): 229 ± 15
